Measured values as given in ChEMBL document CHEMBL5728348, “1 H-pyrazol-1-yl-thiazoles as inhibitors of lactate dehydrogenase and methods of use thereof” (2021).

Experiment: Biochemical Assay: Test compounds were placed in a Greiner Bio-One (Monroe, N.C.) 1536-well black solid bottom assay plate. 200 millimolar (mM) Tris HCl, pH 7.4, 100 micromolar (μM) EDTA and 0.01% TWEEN-20, final concentration, was used as the assay buffer. The LDHA reagent was 2 nanomolar (nM) Human LDHA (Meridian Life Science, Inc., Memphis, Tenn.), final concentration, in assay buffer. The substrate reagent was 0.06 mM NADH and 0.2 mM sodium pyruvate, final concentration, in assay buffer. The resazurin/diaphorase coupling reagent was 0.037 mM resazurin and 0.133 milligrams per milliliter (mg/mL) diaphorase, final concentration, in assay buffer. The inhibition of LDHA activity was measured by fluorescence emission.

SMILES	IC50
Cc1ccc(C2CC2c2cccc(-c3nn(-c4nc(C(=O)O)cs4)c(CC4CC4)c3Cc3ccc([SH+](N)[O-])c(F)c3)c2)s1 (stereo not given)	< 100 nM
N[S+](=O)([O-])c1ccc(Cc2c(-c3ccc(F)c(-c4ccc(C(F)(F)F)cc4)c3)nn(-c3nc(C(=O)O)cs3)c2CC2CC2)cc1F	< 100 nM
N[SH+]([O-])c1ccc(Cc2c(-c3ccc(F)c(NC(=O)c4ccccc4)c3)nn(-c3nc(C(=O)O)cs3)c2CC2CC2)cc1F (stereo not given)	< 100 nM
Cc1ccc(C#Cc2cccc(-c3nn(-c4nc(C(=O)O)cs4)c(CC4CC4)c3Cc3ccc([SH+](N)[O-])c(F)c3)c2)s1 (stereo not given)	< 100 nM
N[S+](=O)([O-])c1ccc(Cc2c(-c3ccc(F)c(C4=CCC(F)(F)CC4)c3)nn(-c3nc(C(=O)O)cs3)c2CC2CC2)cc1F	< 100 nM
CC(C)(C)c1ccc(-c2cccc(-c3nn(-c4nc(C(=O)O)cs4)c(CC4CC4)c3Cc3ccc([SH+](N)[O-])c(F)c3)c2)cc1 (stereo not given)	in the range around 550 nM
COc1ccc(-c2cccc(-c3nn(-c4nc(C(=O)O)cs4)c(CC4CC4)c3Cc3ccc([SH+](N)[O-])c(F)c3)c2)cc1Cl (stereo not given)	in the range around 550 nM
Cc1ccc([C@H]2C[C@@H](c3cccc(-c4nn(-c5nc(C(=O)O)cs5)c(CC5CC5)c4Cc4ccc([SH+](N)[O-])c(F)c4)c3)C2)s1 (stereo not given in full)	< 100 nM
N[S+](=O)([O-])c1ccc(Cc2c(-c3ccc(F)c(-c4ncc[nH]4)c3)nn(-c3nc(C(=O)O)cs3)c2CC2CC2)cc1F	< 100 nM
N[S+](=O)([O-])c1ccc(Cc2c(-c3ccc(F)c(-c4ccc(Cl)c(F)c4)c3)nn(-c3nc(C(=O)O)cs3)c2CC2CC2)cc1F	< 100 nM
